# Literature values, collected in the CATMoS acute toxicity set (Mansouri et al. 2021).
# Assay: rat acute oral toxicity
# Conditions: in vivo
row,SMILES,LD50 [mg/kg]
1,CCOC(C1=NCC(C)(C)CN1)c1ccccc1Cl (configuration not stated),310
2,COc1c(C(C)(C)C)cc([N+](=O)[O-])c(C)c1[N+](=O)[O-],339
3,C[C@@H]1CCC[C@H](C)N1CCCC(O)(c1ccccc1)c1ccccn1 (some centres not stated),251
4,CCCCCCCCCCCCCCCC[N+](C)(C)C,410
5,CCOP(=S)(OC(C)C)Sc1nc(C)cc(C)n1 (configuration not stated),68
6,CCOC(C1=NCC(C)(C)CN1)c1ccc(Cl)cc1 (configuration not stated),190
7,CC(C)CS,7170
8,OCC(O)Oc1ccc(Cl)cc1Cl (configuration not stated),1070
9,O=C(CF)Nc1ccccn1,8
10,N#CC1CC=CCC1 (configuration not stated),460
11,CNC(C)C1CCC(N)C(OC2C(N)CC(N)C(OC3OCC(C)(O)C(NC)C3O)C2O)O1 (configuration not stated),6600
12,Nc1ncnc2c1ncn2[C@@H]1O[C@H](COP(=O)(O)O)[C@@H](O)[C@H]1O,11200
13,CNCCCC12CC(c3ccccc31)c1ccccc12,1320
14,CC(C=O)=Cc1ccccc1,2050
15,CCCCCCCCCCCCCCCCCC[N+](C)(C)Cc1ccccc1,1250
16,CC1(C)S[C@@H]2[C@H](NC(=O)C(C(=O)Oc3ccccc3)c3ccccc3)C(=O)N2[C@H]1C(=O)O (some centres not stated),10000
17,CCCOC(=O)c1ccc(C(=O)OCCC)nc1,5230
18,N#CN,1620
19,O=C1C(Cl)=C(Cl)C(Cl)(Cl)C1(Cl)Cl,178
20,NC(=S)Nc1cccc(Cl)c1,25
21,CCCCc1c(C)nc2ccccn2c1=O,1100
22,CC(C=O)Cc1ccc(C(C)C)cc1 (configuration not stated),3810
23,O=c1oc2cc(O)ccc2s1,633
24,OC1CC2CC1C1CC=CC21 (configuration not stated),3200

row,SMILES,LD50 [mg/kg]
1,CCCCC(CC)COC(C[n+]1ccccc1)c1cccc(Cl)c1 (configuration not stated),250
2,CCCOP(=S)(OCCC)Oc1ccc(S(C)=O)cc1 (configuration not stated),50
3,CC(=O)SCC(=O)N=c1[nH]c2ccccc2s1,400
4,Nc1ccc2c(c1)[nH]c1ccccc12,964
5,O=[N+]([O-])c1cnc(Cl)c([N+](=O)[O-])c1,50
6,CCN(CC)CCN(CCN(CC)CC)n1cc(-c2ccccc2)c2ccccc21,800
7,O=C1C[C@@H]2OCC=C3CN4CC[C@]56c7ccccc7N1[C@H]5[C@H]2[C@H]3C[C@H]46,16.2
8,O=COCC=Cc1ccccc1,2900
9,CCOP(=S)(OCC)SC(CCl)N1C(=O)c2ccccc2C1=O (configuration not stated),5
10,Clc1c(Cl)c(Cl)c2c(c1Cl)Oc1ccccc1O2,0.8
11,OC(c1ccccc1)(c1ccccc1)C1CN2CCC1CC2 (configuration not stated),440
12,CCOC(C1=NCC(C)(CC)CN1)c1ccc(Cl)cc1 (configuration not stated),110
13,CSP(=O)(SC)SC,30
14,COc1ccc2ccc(=O)oc2c1CC=C(C)C,2900
15,CCCCc1ccn[nH]1,509
16,CCOP(=O)(Oc1ccc([N+](=O)[O-])cc1)SCC (configuration not stated),17.9
17,OC(Cn1cncn1)(Cn1cncn1)c1ccc(F)cc1F,1270
18,CCC(CC)COCCOC(=O)CCCCC(=O)OCCOCC(CC)CC,3250
19,OCc1cccc(Oc2ccccc2)c1,1500
20,CCOC(=O)c1ccccc1O,1320
21,O=C(O)[C@@H]1CS[C@H](c2ccccc2O)N1C(=O)CCS,8290
22,CCOP(=S)(OCC)SCn1nc(CC)ccc1=O,18.8
23,CN1CCN(C)CC1,1120
24,O=C(O)c1cc2ccccc2c(Cc2c(O)c(C(=O)OCCOCCN3CCN(C(c4ccccc4)c4ccc(Cl)cc4)CC3)cc3ccccc23)c1O (configuration not stated),1740

row,SMILES,LD50 [mg/kg]
1,Oc1ccc(C(c2ccc(O)cc2)c2ccccn2)cc1,8550
2,CCCCc1c(C)nc(N(C)C)nc1O,2350
3,COc1cc(N)cn[n+]1-c1ccccc1,1330
4,CC(C(=O)O)c1ccc(-n2cc3ccccc3n2)cc1 (configuration not stated),1550
5,COc1ccc2c(c1)c(CC(=O)OCC(C(=O)O)c1ccccc1)c(C)n2C(=O)c1ccc(Cl)cc1 (configuration not stated),140
6,CCN(CC)CC1CCCCN1CC(=O)N1c2ccccc2C(=O)Nc2cccnc21 (configuration not stated),1530
7,Cc1cccc(C#N)c1C,3000
8,CC(C1=C(CCN(C)C)Cc2ccccc21)c1ccccn1 (configuration not stated),618
9,CCOC(=O)c1ccc([N+](=O)[O-])cc1,2660
10,CCCCCOC(CBr)c1ccc(C2CCCCC2)cc1 (configuration not stated),250
11,CC(=O)CC1OCC(CCl)O1 (configuration not stated),120
12,C=C(C)C(=O)OCCSCCCC,5300
13,CCCSP(=O)(OCC)Oc1c(Cl)cc(Cl)cc1Cl (configuration not stated),151
14,C1=Cc2cccc(OCC3CNCCO3)c2C1 (configuration not stated),502
15,Cc1ncc(COP(=O)(O)O)c(C=O)c1O,5900
16,COC(=O)Cc1cccc2ccccc12,1900
17,Fc1ccc(C(c2ccc(F)cc2)N2CCN(C/C=C/c3ccccc3)CC2)cc1,503
18,Cc1ccc(SN(C)C(=O)Oc2cccc3c2OC(C)(C)C3)cc1,25
19,CC1(C)CC(=O)CC(C)(C)N1[O],1460
20,Cc1cc(C)cc(O)c1,608
21,O=C(Nc1ccc(Br)cc1)c1cc(Br)cc(Br)c1O,410
22,CCC(CC)(C(=O)O)c1cccc2ccccc12,1080
23,CCOC(C1=NCC(CC)(CC)CN1)c1cccc(Cl)c1 (configuration not stated),110
24,CC(C)Nc1nc(Cl)nc(NC(C)C)n1,3840
